Source: patent publication US11932624B2, “MDM2 degraders and uses thereof” (Kymera Therapeutics, Inc., priority 2020, dated 2024)

Test system: RS411 cells
Assay: Cell Viability CTG Assay (CellTiter Glo) in RS411 cells
Type: cell-based
Settings: Homo sapiens, RS4-11, 24 h, duration 1 day
Method in brief: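 Read-out was CellTiter Glo luminescence, taken after 10 min at RT, following 1-4 days of incubation at 37 °C, 5% CO2. Cells were plated at 1000 per well with an 11-point, 3-fold series starting at 10 μM final in 0.2% DMSO. IC50 values are given as letter-code ranges.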

IC50	Structure (SMILES)
> 1 µM	COc1cc2c(cc1OC(C)C)C(c1ccc(Cl)cc1)N(c1ccc(N(C)CCCCCCCc3ccc4c(c3)n(C)c(=O)n4C3CCC(=O)NC3=O)cc1)C(=O)C2 (centres unmarked) [I-208]
> 1 µM	COc1cc2c(cc1OC(C)C)C(c1ccc(Cl)cc1)N(c1ccc(N(C)C(=O)C3CCN(CCCCCCc4ccc5c(c4)n(C)c(=O)n5C4CCC(=O)NC4=O)CC3)cc1)C(=O)C2 (centres unmarked) [I-209]
< 0.05 µM	CN(CCCCCc1ccc2c(c1)n(C)c(=O)n2C1CCC(=O)NC1=O)Cc1ccc(NC(=O)[C@@H]2NC3(CCCCC3)[C@@]3(C(=O)Nc4cc(Cl)ccc43)[C@H]2c2cccc(Cl)c2F)c2c1OCCO2 (some centres unmarked) [I-210]
< 0.05 µM	COc1cc2c(cc1OC(C)C)[C@H](c1ccc(Cl)cc1)N(c1ccc(N(C)C[C@H]3CC[C@H](N4CCN(CCc5ccc6c(c5)n(C)c(=O)n6C5CCC(=O)NC5=O)CC4)CC3)cc1)C(=O)C2 (some centres unmarked) [I-211]
> 1 µM	COc1cc2c(cc1OC(C)C)C(c1ccc(Cl)cc1)N(c1ccc(N(C)C[C@H]3CC[C@H](N(C)CCCCc4ccn5c(N6CCC(=O)NC6=O)cnc5c4)CC3)cc1)C(=O)C2 (some centres unmarked) [I-212]
> 1 µM	CNC(=O)c1ccc(N2C(=O)[C@H]3[C@H](c4cccc(Cl)c4F)[C@@](C#N)(c4ccc(Cl)cc4F)[C@H](CC(C)(C)C)N3C2CCCCCCCC#Cc2ccc3c(c2)n(C)c(=O)n3C2CCC(=O)NC2=O)c(OC)c1 (stereo partly drawn) [I-213, 4-[(5S,6R,7S,7aR)-7-(3-chloro-2-fluoro-phenyl)-6-(4-chloro-2-fluoro-phenyl)-6-cyano-5-(2,2-dimethylpropyl)-3-[9-[1-(2,6-dioxo-3-piperidyl)-3-methyl-2-oxo-benzimidazol-5-yl]non-8-ynyl]-1-oxo-3,5,7,7a-tetrahydropyrrolo[1,2-c]imidazol-2-yl]-3-methoxy-N-methyl-benzamide]
0.05 to 0.1 µM	Cn1c(=O)n(C2CCC(=O)NC2=O)c2ccc(C#CCCCCCCCCN3[C@@H](C(=O)Nc4ccc(C(=O)O)cc4)[C@H](c4cccc(Cl)c4F)[C@]4(C(=O)Nc5cc(Cl)ccc54)C34CCCCC4)cc21 (stereo partly drawn) [I-214, 4-((3′R,4'S,5′R)-6″-chloro-4′-(3-chloro-2-fluorophenyl)-1′-(10-(1-(2,6-dioxopiperidin-3-yl)-3-methyl-2-oxo-2,3-dihydro-1H-benzo[d]imidazol-5-yl)dec-9-yn-1-yl)-2″-oxodispiro[cyclohexane-1,2′-pyrrolidine-3′,3″-indoline]-5′-carboxamido)benzoic acid]
< 0.05 µM	Cn1c(=O)n(C2CCC(=O)NC2=O)c2ccc(C#CCCCCCN3CCC(NC(=O)[C@@H]4NC5(CCCCC5)[C@@]5(C(=O)Nc6cc(Cl)ccc65)[C@H]4c4cccc(Cl)c4F)CC3)cc21 (some centres unmarked) [I-224]

Continued, compound first:

Structure (SMILES)	IC50
COc1cc2c(cc1OC(C)C)C(c1ccc(Cl)cc1)N(c1ccc(N(C)C[C@H]3CC[C@H](N4CCN(CCCCCc5cccc6c5n(C)c(=O)n6C5CCC(=O)NC5=O)C(=O)C4)CC3)cc1)C(=O)C2 (some centres unmarked) [I-192]	< 0.05 µM
COc1cc2c(cc1OC(C)C)C(c1ccc(Cl)cc1)N(c1ccc(N(C)C[C@H]3CC[C@H](N4CCN(CCCCCc5ccc6c(c5)n(C)c(=O)n6C5CCC(=O)NC5=O)C(=O)C4)CC3)cc1)C(=O)C2 (some centres unmarked) [I-193]	< 0.05 µM
COc1cc2c(cc1OC(C)C)C(c1ccc(Cl)cc1)N(c1ccc(N(C)C[C@H]3CC[C@H](N4CCC(CCc5ccc6c(c5)n(C)c(=O)n6C5CCC(=O)NC5=O)CC4)CC3)cc1)C(=O)C2 (some centres unmarked) [I-194]	< 0.05 µM
COc1cc2c(cc1OC(C)C)C(c1ccc(Cl)cc1)N(c1ccc(N(C)C[C@H]3CC[C@H](N(C)CCc4ccc5c(c4)n(C)c(=O)n5C4CCC(=O)NC4=O)CC3)cc1)C(=O)C2 (some centres unmarked) [I-195]	> 1 µM
Cn1c(=O)n(C2CCC(=O)NC2=O)c2ccc(CCN3CCN(C[C@H]4CC[C@H](NC(=O)[C@@H]5NC6(CCC(C)(C)CC6)[C@@]6(C(=O)Nc7cc(Cl)ccc76)[C@H]5c5ccnc(Cl)c5F)CC4)CC3)cc21 (some centres unmarked) [I-196]	< 0.05 µM
COc1cc2c(cc1OC(C)C)[C@@H](c1ccc(Cl)cc1)N(c1ccc(N(C)CC3CCN(CCCCCCc4ccc5c(c4)n(C)c(=O)n5C4CCC(=O)NC4=O)CC3)cc1)C(=O)C2 (some centres unmarked) [I-197]	> 1 µM
Cn1c(=O)n(C2CCC(=O)NC2=O)c2ccc(C#CCCN3CCN(C[C@H]4CC[C@H](NC(=O)[C@@H]5NC6(CCC(C)(C)CC6)[C@@]6(C(=O)Nc7cc(Cl)ccc76)[C@H]5c5ccnc(Cl)c5F)CC4)CC3)cc21 (some centres unmarked) [I-198]	< 0.05 µM
CC(C)(C)C[C@@H]1N[C@@H](C(=O)N[C@H]2CC[C@H](CNCCCC#Cc3ccc4c(N5CCC(=O)NC5=O)cncc4c3)CC2)[C@H](c2cccc(Cl)c2F)[C@@]1(C#N)c1ccc(Cl)cc1F [I-199]	> 1 µM
COc1cc2c(cc1OC(C)C)[C@H](c1ccc(Cl)cc1)N(c1ccc(N(C)CC3CCN(CCCCCCc4ccc5c(c4)n(C)c(=O)n5C4CCC(=O)NC4=O)CC3)cc1)C(=O)C2 (some centres unmarked) [I-201]	< 0.05 µM
CC(C)(C)C[C@@H]1N[C@@H](C(=O)N[C@H]2CC[C@H](CNCCCC#Cc3cccn4c(N5CCC(=O)NC5=O)cnc34)CC2)[C@H](c2cccc(Cl)c2F)[C@@]1(C#N)c1ccc(Cl)cc1F [I-202]	> 1 µM
CC1(C)CCC2(CC1)NC(C(=O)N[C@H]1CC[C@H](CN3CCN(CCC#Cc4cccn5c(N6CCC(=O)NC6=O)cnc45)CC3)CC1)[C@H](c1ccnc(Cl)c1F)[C@]21C(=O)Nc2cc(Cl)ccc21 (some centres unmarked) [I-203]	< 0.05 µM
Cn1c(=O)n(C2CCC(=O)NC2=O)c2ccc(N3CCN(C[C@H]4CC[C@H](NC(=O)[C@@H]5NC6(CCC(C)(C)CC6)[C@@]6(C(=O)Nc7cc(Cl)ccc76)[C@H]5c5ccnc(Cl)c5F)CC4)CC3)cc21 (some centres unmarked) [I-204]	< 0.05 µM
Cn1c(=O)n(C2CCC(=O)NC2=O)c2ccc(CN3CCN(C[C@H]4CC[C@H](NC(=O)[C@@H]5NC6(CCC(C)(C)CC6)[C@@]6(C(=O)Nc7cc(Cl)ccc76)[C@H]5c5ccnc(Cl)c5F)CC4)CC3)cc21 (some centres unmarked) [I-205]	< 0.05 µM
COc1cc2c(cc1OC(C)C)C(c1ccc(Cl)cc1)N(c1ccc(N(C)C[C@H]3CC[C@H](N(C)CCCC#Cc4c(OC)ccc5c4n(C)c(=O)n5C4CCC(=O)NC4=O)CC3)cc1)C(=O)C2 (some centres unmarked) [I-206]	< 0.05 µM
Cn1c(=O)n(C2CCC(=O)NC2=O)c2ccc(N3CCN(C[C@H]4CC[C@H](NC(=O)[C@@H]5NC6(CCCCC6)[C@@]6(C(=O)Nc7cc(Cl)ccc76)[C@H]5c5cccc(Cl)c5F)CC4)CC3)cc21 (some centres unmarked) [I-207]	< 0.05 µM
